# Experimental data as given in paper PMC8213057, “Targeting ALK2: An Open Science Approach to Developing Therapeutics for the Treatment of Diffuse Intrinsic Pontine Glioma” (Journal of Medicinal Chemistry, 2020).
# Several values for one entry are separate records, joined by “and”; a condition that tells them apart may be missing. Identical values can stand only once.
# How the values were obtained:
# SRPK1 = SRPK1 (Homo sapiens, UniProt Q96SB4); conditions: 1 μM; Run 1, Run 2
# LIMK2 = LIMK2 (Homo sapiens, UniProt P53671); conditions: 1 μM; Run 1, Run 2
# Sequence of LIMK2 (P53671 whole entry): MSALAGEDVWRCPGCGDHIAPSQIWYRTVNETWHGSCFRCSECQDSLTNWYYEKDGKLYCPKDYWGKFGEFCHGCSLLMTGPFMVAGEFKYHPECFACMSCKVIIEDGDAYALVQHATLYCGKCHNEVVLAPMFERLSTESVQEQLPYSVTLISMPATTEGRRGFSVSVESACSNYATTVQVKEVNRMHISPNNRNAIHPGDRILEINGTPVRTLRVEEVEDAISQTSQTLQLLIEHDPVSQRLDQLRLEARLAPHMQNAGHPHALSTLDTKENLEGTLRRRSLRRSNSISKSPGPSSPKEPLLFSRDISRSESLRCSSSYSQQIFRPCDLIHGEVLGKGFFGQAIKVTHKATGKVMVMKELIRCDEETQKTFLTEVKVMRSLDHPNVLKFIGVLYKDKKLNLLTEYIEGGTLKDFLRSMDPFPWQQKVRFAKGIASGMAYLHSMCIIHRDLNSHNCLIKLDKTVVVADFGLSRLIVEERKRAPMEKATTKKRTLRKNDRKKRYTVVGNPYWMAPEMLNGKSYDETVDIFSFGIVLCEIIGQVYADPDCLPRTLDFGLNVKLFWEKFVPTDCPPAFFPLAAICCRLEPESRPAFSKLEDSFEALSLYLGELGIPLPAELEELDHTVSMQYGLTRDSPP
# MAPKAPK5/PRAK = molecular target: T1, MAPKAPK5/PRAK (Homo sapiens, UniProt Q8IW41); experiment: biochemical; conditions: read-out: % enzyme activity, 1 μM; Run 1, Run 2
# T1 sequence (Q8IW41 1-473): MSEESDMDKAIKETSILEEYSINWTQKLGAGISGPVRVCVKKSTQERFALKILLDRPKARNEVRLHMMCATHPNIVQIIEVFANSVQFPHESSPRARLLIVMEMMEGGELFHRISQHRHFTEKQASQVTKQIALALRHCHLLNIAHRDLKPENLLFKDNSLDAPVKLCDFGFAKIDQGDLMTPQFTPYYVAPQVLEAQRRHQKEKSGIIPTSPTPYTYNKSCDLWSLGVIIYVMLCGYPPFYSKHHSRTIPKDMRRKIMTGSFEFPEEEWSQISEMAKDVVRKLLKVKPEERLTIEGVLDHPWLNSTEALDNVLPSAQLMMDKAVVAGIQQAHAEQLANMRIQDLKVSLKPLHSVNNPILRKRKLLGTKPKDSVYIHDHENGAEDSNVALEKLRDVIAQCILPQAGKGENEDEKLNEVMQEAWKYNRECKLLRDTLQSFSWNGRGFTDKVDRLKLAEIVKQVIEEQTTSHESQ
# JNK3 = JNK3 (Homo sapiens, UniProt P53779); experiment: biochemical; conditions: read-out: % enzyme activity, 1 μM; Run 1, Run 2
# Sequence of JNK3 (P53779 whole entry): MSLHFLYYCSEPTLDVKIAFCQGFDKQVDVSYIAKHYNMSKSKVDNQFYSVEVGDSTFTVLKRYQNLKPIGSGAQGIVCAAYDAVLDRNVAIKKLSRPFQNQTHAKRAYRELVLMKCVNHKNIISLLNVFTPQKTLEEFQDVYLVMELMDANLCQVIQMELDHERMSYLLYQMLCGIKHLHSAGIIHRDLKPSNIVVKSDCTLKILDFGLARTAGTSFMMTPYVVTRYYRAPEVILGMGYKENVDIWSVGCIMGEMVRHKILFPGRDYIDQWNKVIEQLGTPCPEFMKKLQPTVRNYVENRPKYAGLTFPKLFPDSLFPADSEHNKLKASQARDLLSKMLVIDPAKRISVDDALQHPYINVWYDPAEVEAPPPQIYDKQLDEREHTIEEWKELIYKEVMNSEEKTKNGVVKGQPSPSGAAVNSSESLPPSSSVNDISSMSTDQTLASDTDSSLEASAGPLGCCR
# SSTK/TSSK6 = SSTK/TSSK6 (Homo sapiens, UniProt Q9BXA6); conditions: 1 μM; Run 1, Run 2
# Sequence of SSTK/TSSK6 (Q9BXA6 whole entry): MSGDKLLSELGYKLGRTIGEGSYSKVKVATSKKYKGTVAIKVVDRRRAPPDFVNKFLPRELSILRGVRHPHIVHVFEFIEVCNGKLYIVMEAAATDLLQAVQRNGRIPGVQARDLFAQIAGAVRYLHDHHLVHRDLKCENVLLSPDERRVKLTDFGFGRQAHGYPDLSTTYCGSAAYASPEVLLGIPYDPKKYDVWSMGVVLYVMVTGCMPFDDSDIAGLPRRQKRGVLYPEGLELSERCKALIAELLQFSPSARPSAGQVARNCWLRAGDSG
# SIK3 = SIK3 (Homo sapiens, UniProt Q9Y2K2); experiment: biochemical; conditions: read-out: % enzyme activity, 1 μM; Run 1, Run 2
# Sequence of SIK3 (Q9Y2K2 whole entry): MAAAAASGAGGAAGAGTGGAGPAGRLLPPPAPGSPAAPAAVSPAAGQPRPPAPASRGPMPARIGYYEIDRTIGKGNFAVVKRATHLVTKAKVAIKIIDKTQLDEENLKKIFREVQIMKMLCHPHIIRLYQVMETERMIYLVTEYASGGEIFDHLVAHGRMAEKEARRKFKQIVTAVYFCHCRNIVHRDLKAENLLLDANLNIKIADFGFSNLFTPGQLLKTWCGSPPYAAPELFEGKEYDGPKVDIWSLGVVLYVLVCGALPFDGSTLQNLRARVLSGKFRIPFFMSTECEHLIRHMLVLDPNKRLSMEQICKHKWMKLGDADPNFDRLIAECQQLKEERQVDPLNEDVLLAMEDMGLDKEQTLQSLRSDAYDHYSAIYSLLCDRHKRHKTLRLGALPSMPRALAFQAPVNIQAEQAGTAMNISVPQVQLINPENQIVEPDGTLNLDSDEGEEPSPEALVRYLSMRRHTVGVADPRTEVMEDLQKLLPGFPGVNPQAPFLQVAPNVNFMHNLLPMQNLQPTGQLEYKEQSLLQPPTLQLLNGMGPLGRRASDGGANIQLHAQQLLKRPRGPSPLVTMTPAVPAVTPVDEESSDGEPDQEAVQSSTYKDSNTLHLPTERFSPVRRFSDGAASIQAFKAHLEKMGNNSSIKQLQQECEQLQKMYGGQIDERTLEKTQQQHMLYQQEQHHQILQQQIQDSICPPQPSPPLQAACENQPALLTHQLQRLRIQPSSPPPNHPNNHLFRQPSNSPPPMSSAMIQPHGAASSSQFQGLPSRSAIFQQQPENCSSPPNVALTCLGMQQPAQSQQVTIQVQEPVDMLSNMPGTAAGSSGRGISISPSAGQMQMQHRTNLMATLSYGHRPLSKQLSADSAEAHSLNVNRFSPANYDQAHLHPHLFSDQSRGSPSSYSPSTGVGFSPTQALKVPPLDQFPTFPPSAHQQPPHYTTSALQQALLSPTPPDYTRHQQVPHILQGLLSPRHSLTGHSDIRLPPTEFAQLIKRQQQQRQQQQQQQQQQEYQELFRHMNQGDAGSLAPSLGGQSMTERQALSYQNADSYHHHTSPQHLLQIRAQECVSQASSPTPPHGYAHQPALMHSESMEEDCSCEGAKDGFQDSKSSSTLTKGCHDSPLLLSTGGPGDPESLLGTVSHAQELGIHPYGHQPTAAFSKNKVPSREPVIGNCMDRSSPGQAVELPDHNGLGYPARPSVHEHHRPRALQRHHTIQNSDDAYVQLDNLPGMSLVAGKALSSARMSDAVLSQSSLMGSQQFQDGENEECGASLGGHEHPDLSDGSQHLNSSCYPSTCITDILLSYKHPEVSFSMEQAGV
# RIPK4 = molecular target: T2, RIPK4 (Homo sapiens, UniProt P57078); experiment: biochemical; conditions: read-out: % enzyme activity, 1 μM; Run 1, Run 2
# T2 sequence (P57078 1-832): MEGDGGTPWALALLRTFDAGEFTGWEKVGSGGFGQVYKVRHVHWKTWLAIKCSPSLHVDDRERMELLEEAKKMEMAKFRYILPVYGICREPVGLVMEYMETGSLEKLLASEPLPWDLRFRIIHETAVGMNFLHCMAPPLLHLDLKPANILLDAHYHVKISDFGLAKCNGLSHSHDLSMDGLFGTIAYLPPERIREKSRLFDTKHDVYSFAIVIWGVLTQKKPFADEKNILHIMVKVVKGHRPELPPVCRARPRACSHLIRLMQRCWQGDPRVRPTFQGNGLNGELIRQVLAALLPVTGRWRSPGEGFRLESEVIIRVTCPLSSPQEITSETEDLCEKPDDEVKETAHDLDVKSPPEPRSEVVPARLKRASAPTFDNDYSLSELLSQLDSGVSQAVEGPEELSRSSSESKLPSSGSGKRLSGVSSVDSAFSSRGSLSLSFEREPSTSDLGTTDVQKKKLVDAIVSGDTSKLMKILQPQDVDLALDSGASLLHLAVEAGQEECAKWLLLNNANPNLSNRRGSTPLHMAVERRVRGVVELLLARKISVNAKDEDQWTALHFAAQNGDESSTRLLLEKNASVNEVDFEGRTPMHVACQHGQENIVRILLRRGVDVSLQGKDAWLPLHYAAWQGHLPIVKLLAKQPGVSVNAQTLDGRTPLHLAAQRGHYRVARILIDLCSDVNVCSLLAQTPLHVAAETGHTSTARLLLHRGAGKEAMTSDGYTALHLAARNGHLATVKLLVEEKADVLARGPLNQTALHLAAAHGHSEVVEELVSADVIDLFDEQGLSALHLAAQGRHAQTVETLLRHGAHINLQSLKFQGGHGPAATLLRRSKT
# [1] = human liver microsomal stability assay; assay type: in vitro ADME; conditions: human, microsomes, pH 7.4, human liver microsomes, 60 min, 37 °C, read-out: HLM % Remaining at 1h
# PKCb2 = PKCb2 (Homo sapiens, UniProt P05771); conditions: 1 μM; Run 1, Run 2
# Sequence of PKCb2 (P05771 1-673 isoform P05771-2): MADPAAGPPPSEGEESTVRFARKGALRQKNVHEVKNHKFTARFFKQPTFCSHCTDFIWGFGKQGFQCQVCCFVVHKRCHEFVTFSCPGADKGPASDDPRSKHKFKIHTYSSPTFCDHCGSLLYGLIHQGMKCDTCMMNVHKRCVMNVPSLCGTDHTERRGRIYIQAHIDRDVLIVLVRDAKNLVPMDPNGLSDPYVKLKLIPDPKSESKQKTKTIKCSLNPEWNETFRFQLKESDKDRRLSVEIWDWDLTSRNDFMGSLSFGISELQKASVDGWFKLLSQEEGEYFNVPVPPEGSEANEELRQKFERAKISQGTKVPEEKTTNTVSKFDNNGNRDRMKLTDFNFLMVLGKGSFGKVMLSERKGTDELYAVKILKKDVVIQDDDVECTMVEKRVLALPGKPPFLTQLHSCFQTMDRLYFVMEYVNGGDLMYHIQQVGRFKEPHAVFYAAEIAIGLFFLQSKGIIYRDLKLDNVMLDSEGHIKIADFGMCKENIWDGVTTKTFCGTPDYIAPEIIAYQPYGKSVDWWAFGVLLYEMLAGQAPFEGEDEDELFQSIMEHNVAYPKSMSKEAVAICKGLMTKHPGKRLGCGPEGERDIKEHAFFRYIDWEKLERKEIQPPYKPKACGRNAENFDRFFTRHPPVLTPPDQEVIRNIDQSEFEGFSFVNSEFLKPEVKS
# TAOK3/JIK = molecular target: T3, TAOK3/JIK (Homo sapiens, UniProt Q9H2K8); experiment: biochemical; conditions: read-out: % enzyme activity, 1 μM; Run 1, Run 2
# T3 sequence (Q9H2K8 1-898): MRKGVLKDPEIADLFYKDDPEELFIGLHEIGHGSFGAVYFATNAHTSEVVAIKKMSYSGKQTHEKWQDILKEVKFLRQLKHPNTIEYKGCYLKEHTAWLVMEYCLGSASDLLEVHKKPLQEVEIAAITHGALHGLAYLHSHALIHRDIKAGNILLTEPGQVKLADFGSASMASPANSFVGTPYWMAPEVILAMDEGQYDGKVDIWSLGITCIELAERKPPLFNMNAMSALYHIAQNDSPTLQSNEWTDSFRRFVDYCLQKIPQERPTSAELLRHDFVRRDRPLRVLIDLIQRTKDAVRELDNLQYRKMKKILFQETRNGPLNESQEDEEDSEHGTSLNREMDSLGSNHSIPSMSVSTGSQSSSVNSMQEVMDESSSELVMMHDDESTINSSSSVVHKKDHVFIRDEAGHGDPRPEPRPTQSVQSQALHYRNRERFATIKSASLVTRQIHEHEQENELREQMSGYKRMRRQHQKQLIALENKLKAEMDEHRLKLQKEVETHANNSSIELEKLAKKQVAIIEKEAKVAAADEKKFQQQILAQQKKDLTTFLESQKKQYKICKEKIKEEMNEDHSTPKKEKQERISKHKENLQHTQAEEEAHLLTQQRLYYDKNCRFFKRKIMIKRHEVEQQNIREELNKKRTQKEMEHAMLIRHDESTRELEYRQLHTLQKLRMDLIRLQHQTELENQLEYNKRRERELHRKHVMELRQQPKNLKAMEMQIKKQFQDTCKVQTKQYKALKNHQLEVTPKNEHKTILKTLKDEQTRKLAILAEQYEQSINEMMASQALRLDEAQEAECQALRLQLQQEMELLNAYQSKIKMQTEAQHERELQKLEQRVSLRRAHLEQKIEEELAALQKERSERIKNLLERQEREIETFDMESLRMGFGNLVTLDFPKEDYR
# Sequence of SRPK1 (Q96SB4 whole entry): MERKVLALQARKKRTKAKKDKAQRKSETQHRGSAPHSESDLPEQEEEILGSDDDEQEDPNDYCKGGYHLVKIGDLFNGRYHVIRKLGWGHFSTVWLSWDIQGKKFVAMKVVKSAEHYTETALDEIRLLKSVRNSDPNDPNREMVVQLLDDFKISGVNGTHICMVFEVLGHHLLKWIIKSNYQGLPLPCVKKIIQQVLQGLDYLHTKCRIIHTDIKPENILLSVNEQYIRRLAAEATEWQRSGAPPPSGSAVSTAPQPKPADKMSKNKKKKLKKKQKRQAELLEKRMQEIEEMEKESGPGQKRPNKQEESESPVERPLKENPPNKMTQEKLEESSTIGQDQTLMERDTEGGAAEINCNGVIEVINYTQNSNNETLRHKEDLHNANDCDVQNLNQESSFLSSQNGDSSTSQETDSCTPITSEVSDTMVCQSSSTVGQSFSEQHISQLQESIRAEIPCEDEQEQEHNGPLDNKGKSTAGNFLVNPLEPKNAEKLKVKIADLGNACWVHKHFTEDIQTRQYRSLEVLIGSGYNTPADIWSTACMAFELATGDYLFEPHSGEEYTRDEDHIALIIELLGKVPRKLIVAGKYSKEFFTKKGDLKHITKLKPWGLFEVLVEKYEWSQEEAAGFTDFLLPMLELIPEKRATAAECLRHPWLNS
SMILES,% enzyme activity (SRPK1) [%],% enzyme activity (LIMK2) [%],remaining activity at 1 µM (MAPKAPK5/PRAK) [%],remaining activity at 1 µM (JNK3) [%],% enzyme activity (SSTK/TSSK6) [%],% enzyme activity at 1 μM (ALK2/ACVR1),remaining activity at 1 µM (SIK3) [%],remaining activity at 1 µM (RIPK4) [%],"remaining at 1 h, 1 μM [1] [%]",% enzyme activity (PKCb2) [%],remaining activity at 1 µM (TAOK3/JIK) [%]
"COc1cc(-c2cncc(-c3ccc(N4CCN(C)CC4)cc3)c2C)cc(F)c1C(N)=O [Compound 26a, 2-Fluoro-6-methoxy-4-(4-methyl-5-(4-(4-methylpiperazin-1-yl)phenyl)pyridin-3-yl)benzamide]",105.40,99.63,93.2,96.4,107.86,9.92% and 8.63%,59.5,75.5,78,106.51,69.7
"COc1cc(-c2cncc(-c3ccc(N4C[C@@H](C)N(C)[C@@H](C)C4)cc3)c2C)cc(F)c1C(N)=O [Compound 26c, 2-Fluoro-6-methoxy-4-(4-methyl-5-(4-((3R,5S)-3,4,5-trimethylpiperazin-1-yl)phenyl)pyridin-3-yl)benzamide]",81.70,95.75,94.7,104,98.04,13.7% and 11.7%,89,86.1,47.5,97.56,84.5
